In US20230414506A1, “PEPTIDE FORMULATIONS AND METHODS OF USE” (REALTA LIFE SCIENCES, INC., priority 2020, published 2023):
Ends that are not written are not given here. dPEG24 = C-terminal PEG24

What was measured:
[1] = format: physicochemical; settings: 20% Intralipid, 4° C. for 48 hours
[2] = Gelling of citrate buffer formulation; format: physicochemical; settings: 80 mg/ml, pH 6.8
Description: For the citrate buffer conditions, PA-dPEG24 and PA-I8Sar were formulated at a concentration of 80 mg/ml at pH 6.8. […] This gelling behavior was not observed for PA-I8Sar.

[3] = Aqueous solubility of the peptides; format: physicochemical
[4] = system: complement activity (human O sera and AB red blood cells); experiment: ABO incompatibility CH50-type hemolytic assay of peptides formulated with different excipients; format: biochemical; settings: for Inhibition of complement activation in the hemolytic assay: formulated in citrate, ascorbate and methionine, compared to histidine formulation
Description: To ascertain if these various excipients had any effect on the functional activity of PA-dPEG24 and PA-I8Sar, the formulated peptides were tested in a hemolytic assay to determine the ability of these molecules to inhibit complement activity. For hemolytic complement assays, human red blood cells (RBCs) from type AB donors were purified, washed and standardized to 1×10^9 cells/ml, as previously described. Human sera from type O donors at a 20% final concentration was combined with increasing concentrations of the formulated peptides and the volume was brought up to 0.15 ml with GVBS++ buffer and […] RBCs. The samples were spun at 3,000 rpm for 5 minutes and the supernatant was collected and read at 412 nm. Values are represented as a percent of the positive control, which consists of human O sera and AB red blood cells in GVBS++ buffer without peptide addition.

[5] = cited from earlier work

Substance | Appearance of Intralipid mixture on standing [1] | Gelling behavior [2] | Solubility studies, character of the peptide [3] | Inhibition of complement activation in the hemolytic assay [4] | Aqueous solubility [5] | Complement inhibiting activity compared between excipients ([4]; ascorbate, citrate, histidine, methionine formulations)
IALILEPICCQERAA [PA] | became paste-like | – | – | – | – | –
IALILEP(Sar)CCQERAA [PA-I8Sar] | – | not observed | amphipathic | able to maintain dose-dependent inhibition of complement activation | – | –
IALILEPICCQERAA-dPEG24 (cysteine pairing not given here) [PA-dPEG24, PIC1 peptide with a C-terminal monodisperse 24-mer PEGylated moiety] | – | would start to gel if not kept on ice | – | able to maintain dose-dependent inhibition of complement activation | highly soluble | slightly increased complement inhibiting activity compared to peptide formulated in methionine
